Experimental data published in patent US20090162413A1 (priority 1998, published 2009).

Tested on: human coronary artery smooth muscle cells (hCaSMC)
Experiment: 3H-thymidine uptake proliferation assay, hCaSMC
Format: cell-based
Conditions: Homo sapiens; read-out: hCaSMC IC50 Mean ± SEM
Protocol: Experiments were performed to investigate interactions between zotarolimus (ABT-578) and paclitaxel when administered in combination. The effects of paclitaxel and zotarolimus on the anti-proliferative activity of human coronary artery smooth muscle ([…]) and endothelial […] determined using an in vitro proliferation assay. The proliferation and migration of vascular smooth muscle cells into the vascular neointima is a characteristic pathologic response seen in restenotic lesions (Lafont and Libby, 1998). As a result, in vitro assays which specifically measure the anti-proliferative activity of candidate anti-restenotic compounds on human coronary artery smooth muscle and endothelial cells predict potential anti-restenotic activity in vivo. Compounds or combinations of compounds which attenuate growth factor-mediated human coronary artery smooth muscle cell ([…]) proliferation, as measured by the tritium incorporation assay in vitro, are candidate anti-restenotic agents. The tritium incorporation assay is an accurate and sensitive method to determine cell number and proliferation. […] The attenuation of zotarolimus's anti-proliferative activity by tacrolimus is a clear example of this effect (FIG. 10A). To determine the potential anti-restenotic activity of combinations of zotarolimus and paclitaxel, the proliferation of […] was measured in the presence of each compound and in combination. To determine if paclitaxel attenuated or augmented the activity of zotarolimus the effect of paclitaxel and zotarolimus alone and in combination on growth-factor induced proliferation was determined. Data were analyzed for additivity using an isobologram approach and a combination index analysis. An isobologram is a Cartesian plot of pairs of doses that, in combination, yield a specified level of effect. It is a convenient way of graphically displaying results of drug-combination and similar studies, because paired values of experimental points that fall below or above the line connecting the axial points indicate synergistic and non-synergistic interactions, respectively. Cell proliferation was monitored by following incorporation of ^3H-thymidine into newly synthesized DNA of cells stimulated by serum and growth factors. Exponentially growing […] were seeded into 96-well flat bottom tissue culture plates at 5,000 cells/well (10,000 cells/well for […]). The cells were allowed to attach overnight. The growth medium was removed the following day, and cells were washed twice with un-supplemented (basal) medium to remove traces of serum and growth factors. […] PerkinElmer; Wellesley; MA) was added to each filter well and the plates were counted using a TopCount microplate scintillation counter (PerkinElmer). […]

CO[C@H]1C[C@@H]2CC[C@@H](C)[C@@](O)(O2)C(=O)C(=O)N2CCCC[C@H]2C(=O)O[C@H]([C@H](C)C[C@@H]2CC[C@H](n3cnnn3)[C@H](OC)C2)CC(=O)[C@H](C)/C=C(\C)[C@@H](O)[C@@H](OC)C(=O)[C@H](C)C[C@H](C)/C=C/C=C/C=C/1C [zotarolimus]
IC50: 4.2 ± 1.7 nM
